Experimental data: patent US9265787B2, “Combined inhibition of the vitamin D receptor and DNA replication in the treatment of cancer” (Institute for Cancer Research, priority 2011, dated 2016)

Columns and labels:
Type in all cases: cell-based
Panc1 cells [1] = assay: Clonogenic assay with VDR antagonist TEI-9647 and gemcitabine; conditions: data not shown
Protocol: (§1) TEI-9647 alone killed cells, consistent with reduced clonogenic survival by VDR siRNA alone. Clonogenic assays were performed using several different doses of the inhibitor compound to compare clonogenic survival to assays described above using VDR siRNAs and shRNAs. The clonogenic assays were performed as described above. The TEI-9647 compound was added prior to gemcitabine addition, consistent with the timing of the siRNA treatments described above. Cells were treated with inhibitor for 48 hours followed by gemcitabine treatment for 48 hours and allowed to form colonies for 10-12 days. Survival was then quantified by staining and destaining of subsequent colonies with crystal violet and reading the resultant destain at wavelength 595 nm.

BXPC3 cells [2] = assay: as above
Protocol: Note sensitization at 2 μM of TEI-9647. The average of 3 independent experiments is shown.
as §1

Panc1:gfpH2B cells = assay: Time-lapse videomicroscopy of cell fates with siRNAs/drugs and gemcitabine
Source text: FIGS. 5A-5C show time lapse videomicroscopy tracking the fates of Panc1:gfpH2B cells treated with various combinations of siRNAs and drugs.
White arrows show mitotic cells in Chk1 depleted cells. Other rounded cells are apoptotic.
The fate of Panc1:gfpH2B cells treated with various combinations of siRNA and gemcitabine was tracked with time-lapse videomicroscopy (FIG. 5A). […] Cells were transfected with indicated siRNAs, and synchronized at the G1/S boundary. Time-lapse was started upon release from the G1/S block and continued for the next 48 hours. Select frames from the movies (0, 12, 24 and 48 hours) are shown.
A comparison of cells treated with gemcitabine in the presence and absence of UCN01, an inhibitor of the Chk1 DNA damage response kinase was carried out (FIG. 5A).
The percentage of cell death was quantified (FIG. 5C).
The mechanism of chemosensitization by inhibiting VDR was investigated, and it was determined that this mechanism is different from overriding the DNA damage checkpoint pathway through Chk1 inhibition (FIG. 6A). […] Chk1 was depleted by using siRNAs targeted to the Chk1 transcript from the Dharmacon smartPOOL siRNA library. The siRNAs included the sequence […] (SEQ ID NO:8), […] (SEQ ID NO:9), […] (SEQ ID NO:10), and […] (SEQ ID NO:11).
Loss of VDR promotes apoptosis of gemcitabine-treated cells through a different pathway than that which is used after Chk1 inhibition. […]

BXPC3 cells [3] = assay: Clonogenic survival after siRNA transfection and 18 h gemcitabine; conditions: VDR siRNA-transfected BXPC3 cells, gemcitabine 18 hours, colonies after eight days
Protocol: (§2) Clonogenic survival of BXPC3 cells transfected with indicated siRNAs and treated with drug or vehicle. Plk1 siRNA is positive control for killing. […] Panc 1 cells transfected with VDR siRNA are also included.
(§3) Cells were transfected with siRNA, treated with gemcitabine for 18 hours, then seeded. Surviving colonies were quantitated eight days later.

Panc1 cells [4] = assay: as above; conditions: VDR siRNA-transfected Panc 1 cells, gemcitabine 18 hours, colonies after eight days
Protocol: as §2, §3

Panc1 cells [5] = assay: Immunofluorescence staining for DNA damage response proteins; conditions: gemcitabine-treated compared to vehicle treated cells
Source text: Immunofluorescence staining for DNA damage response proteins, TAO1, 53BP1, and γ-H2AX of gemcitabine treated Panc1 cells transfected with control or VDR siRNA.

BXPC3shVDR cells = assay: Drug survival of BXPC3 cells stably depleted of VDR (rescue experiments)
[6] = tested on: BXPC3 cells stably expressing gfpH2B; assay: Time-lapse microscopy of BXPC3 cells stably expressing gfpH2B (preliminary experiments); conditions: S phase by FACS
Source text: VDR is known to induce transcription of the Cdk inhibitor, p21, and this is one of the reasons used to explain the anti-proliferative activity of vitamin D. As p21 is also activated by DNA damage, it is possible that VDR contributes to the cell cycle checkpoint arrest induced by gemcitabine. This will be directly tested by time-lapse microscopy of synchronized cells after depletion of VDR and treatment with gemcitabine.

Panc1 cells [7] = assay: Effect of the sublethal screening dose of gemcitabine (phospho-H2AX foci, cell cycle arrest); conditions: sublethal dose (IC20)
Panc1 cells [8] = assay: CellTiter-Glo viability assay with VDR short hairpin RNA and gemcitabine
BXPC3 cells [9] = assay: as above

## C=C1C[C@H](C[C@@H](C)[C@H]2CC[C@H]3/C(=C/C=C4/C[C@@H](O)C[C@H](O)C4=C)CCC[C@]23C)OC1=O [TEI-9647]
Panc1 cells [1]
  sensitization to gemcitabine (clonogenic survival): sensitize both BXPC3 and Panc1 cells to gemcitabine
BXPC3 cells [2]; TEI-9647 added prior to gemcitabine
  sensitization to gemcitabine (clonogenic survival): sensitize both BXPC3 and Panc1 cells to gemcitabine
BXPC3 cells [2]; with gemcitabine, average of 3 independent experiments
  TEI-9647 concentration at which sensitization is noted: 2 µM
BXPC3 cells [2]; without gemcitabine
  effect of TEI-9647 alone on clonogenic survival: killed cells

## CN[C@@H]1C[C@H]2O[C@@](C)([C@@H]1OC)n1c3ccccc3c3c4c(c5c6ccccc6n2c5c31)C(=O)N[C@@H]4O [UCN01]
Panc1:gfpH2B cells; 48 hour time-lapse after release from G1/S block
  fate of gemcitabine-treated cells (mitotic entry, phase of death): promoted cells to first enter mitosis (arrows) which then caused cell death
Panc1:gfpH2B cells; gemcitabine-treated cells with UCN01, phase contrast images
  cell number at 48 hour versus 0 hour: reduced cell number

## Nc1ccn([C@@H]2O[C@H](CO)[C@@H](O)C2(F)F)c(=O)n1 [gemcitabine, Gemcitabine]
BXPC3 cells [3]
  further reduction of survival by gemcitabine: > 85%
Panc1 cells [4]
  further reduction of survival by gemcitabine: > 85%
Panc1 cells [5]
  phospho-H2AX and 53BP1 staining in nuclei: increased
BXPC3shVDR cells; 50 nM, compared to the same cells rescued by wild type VDR
  survival of BXPC3shVDR cells carrying the C288G VDR mutant: killed
[6]
  duration of arrest in interphase after gemcitabine treatment: up to 48 hours
Panc1 cells [7]
  DNA damage and cell cycle arrest at the screening dose: sufficient to induce DNA damage

## CC(=O)O[C@H]1C(=O)[C@@]2(C)[C@H]([C@H](OC(=O)c3ccccc3)[C@]3(O)C[C@H](OC(=O)[C@H](O)[C@@H](NC(=O)c4ccccc4)c4ccccc4)C(C)=C1C3(C)C)[C@]1(OC(C)=O)CO[C@@H]1C[C@@H]2O [taxol]
BXPC3shVDR cells; two concentrations of taxol, BXPC3 parental, shVDR and rescued cells
  effect of VDR status on killing by taxol: did not affect killing

## VDR shRNA: VDR short hairpin RNA (clone ID TRCN000019504), sequence CGAAGUGUUUGGCAAUGAGAU (SEQ ID NO: 7) (listed as Homo sapiens)
Panc1 cells [8]
  sensitization to killing by gemcitabine (viability): sensitized both cell lines to killing by gemcitabine
BXPC3 cells [9]
  sensitization to killing by gemcitabine (viability): sensitized both cell lines to killing by gemcitabine
